Patent US9884063B2, “Amido-substituted azole compounds” (Bayer Pharma Aktiengesellschaft, priority 2014, dated 2018)

Biological target: T1, TNKS1 (Homo sapiens, UniProt O95271)
T1 sequence (O95271 1-1327): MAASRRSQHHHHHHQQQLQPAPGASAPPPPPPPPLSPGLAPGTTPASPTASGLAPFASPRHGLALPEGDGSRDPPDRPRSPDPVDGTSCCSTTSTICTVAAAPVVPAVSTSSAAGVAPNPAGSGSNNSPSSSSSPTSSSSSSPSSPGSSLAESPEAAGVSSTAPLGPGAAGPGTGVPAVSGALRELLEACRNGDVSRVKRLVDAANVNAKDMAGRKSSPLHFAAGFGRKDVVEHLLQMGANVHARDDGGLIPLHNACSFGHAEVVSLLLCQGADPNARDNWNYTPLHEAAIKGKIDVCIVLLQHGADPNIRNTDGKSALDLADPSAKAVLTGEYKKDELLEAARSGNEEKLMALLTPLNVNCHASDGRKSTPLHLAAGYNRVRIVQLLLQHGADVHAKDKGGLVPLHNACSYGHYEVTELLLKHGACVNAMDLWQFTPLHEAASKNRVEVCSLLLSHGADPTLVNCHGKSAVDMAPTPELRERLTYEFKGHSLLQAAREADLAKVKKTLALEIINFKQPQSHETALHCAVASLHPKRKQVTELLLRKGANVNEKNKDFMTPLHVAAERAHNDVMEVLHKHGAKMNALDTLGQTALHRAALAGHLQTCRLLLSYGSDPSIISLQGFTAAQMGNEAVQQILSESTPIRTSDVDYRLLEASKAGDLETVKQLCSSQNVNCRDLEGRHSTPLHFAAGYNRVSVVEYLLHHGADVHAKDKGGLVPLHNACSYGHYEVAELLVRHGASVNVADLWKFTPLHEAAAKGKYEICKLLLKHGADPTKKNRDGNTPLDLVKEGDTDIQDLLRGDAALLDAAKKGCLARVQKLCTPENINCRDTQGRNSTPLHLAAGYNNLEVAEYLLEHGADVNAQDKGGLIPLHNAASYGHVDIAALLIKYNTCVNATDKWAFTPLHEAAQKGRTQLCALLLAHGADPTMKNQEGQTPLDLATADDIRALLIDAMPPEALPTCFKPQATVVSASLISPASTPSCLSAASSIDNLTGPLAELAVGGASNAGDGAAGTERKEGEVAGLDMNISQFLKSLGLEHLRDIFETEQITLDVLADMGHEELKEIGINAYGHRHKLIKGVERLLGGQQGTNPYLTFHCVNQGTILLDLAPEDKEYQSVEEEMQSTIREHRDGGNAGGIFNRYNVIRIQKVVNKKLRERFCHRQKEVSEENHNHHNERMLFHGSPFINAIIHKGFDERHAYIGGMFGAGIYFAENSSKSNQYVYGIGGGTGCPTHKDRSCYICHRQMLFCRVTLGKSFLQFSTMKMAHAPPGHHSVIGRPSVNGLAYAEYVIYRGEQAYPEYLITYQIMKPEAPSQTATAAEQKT
Assay: Modified TNKS1 Assay 3 (BPS kit #80573, biotin-NAD+, 96 well)
Assay type: biochemical
Details: human TNKS1, BPS kit #80573, 96 well
How it was run: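 Chemiluminescent assay of TNKS1-catalysed ribosylation of a protein substrate with biotin-labelled NAD+, detected via streptavidin-HRP; run per kit protocol. Inhibition lowers the signal, and IC50 is the compound concentration halving the normalised readout.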

IC50	Compound
> 0.5 µM	O=C(Nc1ccc(NC(=O)c2[nH]cnc2C(=O)N2CC3(COC3)C2)cc1)c1cc(F)c(F)cc1Cl [Example 52, N-{4-[(2-chloro-4,5-difluorobenzoyl)amino]phenyl}-4-(2-oxa-6-azaspiro[3.3]hept-6-ylcarbonyl)-1H-imidazole-5-carboxamide]
0.02 µM	C[C@@H]1CCCCN1CCNC(=O)c1[nH]cnc1C(=O)Nc1ccc(NC(=O)c2ccc(F)cc2Cl)cc1 [Example 267, N^4-{4-[(2-chloro-4-fluorobenzoyl)amino]phenyl}-N^5-{2-[(2R)-2-methylpiperidin-1-yl]ethyl}-1H-imidazole-4,5-dicarboxamide]
0.03 µM	CN(C)CCNC(=O)c1nc[nH]c1C(=O)Nc1ccc(NC(=O)c2ccc(F)cc2Cl)cc1 [Example 22, N^4-{4-[(2-chloro-4-fluorobenzoyl)amino]phenyl}-N^5-[2-(dimethylamino)ethyl]-1H-imidazole-4,5-dicarboxamide]
< 0.0005 µM	C[C@@H]1CCCN(CCNC(=O)c2[nH]cnc2C(=O)Nc2ccc(NC(=O)c3ccc(F)cc3Cl)cc2)C1 [Example 278, N^4-{4-[(2-chloro-4-fluorobenzoyl)amino]phenyl}-N^5-{2-[(3R)-3-methylpiperidin-1-yl]ethyl}-1H-imidazole-4,5-dicarboxamide]
0.005 µM	Cc1nc(C(=O)Nc2ccc(NC(=O)c3ccc(F)cc3Cl)cc2)c(C(=O)NCCN2CCCCC2)[nH]1 [Example 67, N^4-{4-[(2-chloro-4-fluorobenzoyl)amino]phenyl}-2-methyl-N^5-[2-(piperidin-1-yl)ethyl]-1H-imidazole-4,5-dicarboxamide]
0.14 µM	CNC(=O)c1nc[nH]c1C(=O)Nc1ccc(NC(=O)c2ccc(F)cc2I)cc1 [Example 61, N^5-{4-[(4-fluoro-2-iodobenzoyl)amino]phenyl}-N^4-methyl-1H-imidazole-4,5-dicarboxamide]
0.002 µM	CS(=O)(=O)c1ccc(C(=O)Nc2ccc(NC(=O)c3[nH]cnc3C(=O)NCCN3CCCCC3)cc2)c(Cl)c1 [Example 53, N^5-(4-{[2-chloro-4-(methylsulfonyl)benzoyl]amino}phenyl)-N^4-[2-(piperidin-1-yl)ethyl]-1H-imidazole-4,5-dicarboxamide]
0.03 µM	CNC(=O)c1nc[nH]c1C(=O)Nc1ccc(NC(=O)c2ccc(S(C)(=O)=O)cc2Cl)cc1 [Example 55, N^5-(4-{[2-chloro-4-(methylsulfonyl)benzoyl]amino}phenyl)-N^4-methyl-1H-imidazole-4,5-dicarboxamide]
0.23 µM	O=C(Nc1ccc(NC(=O)c2[nH]cnc2C(=O)NC2CC2)cc1)c1cc(F)c(F)cc1Cl [Example 51, N^5-{4-[(2-chloro-4,5-difluorobenzoyl)amino]phenyl}-N^4-cyclopropyl-1H-imidazole-4,5-dicarboxamide]
0.007 µM	CC(CN1CCOCC1)NC(=O)c1[nH]cnc1C(=O)Nc1ccc(NC(=O)c2ccc(F)cc2Cl)cc1 (single isomer, unassigned; enantiomer 2) [Example 270, N^4-{4-[(2-chloro-4-fluorobenzoyl)amino]phenyl}-N^5-[1-(morpholin-4-yl)propan-2-yl]-1H-imidazole-4,5-dicarboxamide (enantiomer 2)]
0.09 µM	CNC(=O)c1nc[nH]c1C(=O)Nc1ccc(NC(=O)c2ccc(F)cc2Br)cc1 [Example 56, N^5-{4-[(2-bromo-4-fluorobenzoyl)amino]phenyl}-N^4-methyl-1H-imidazole-4,5-dicarboxamide]

Compound	IC50
O=C(Nc1ccc(NC(=O)c2[nH]cnc2C(=O)NCCN2CCCCC2)cc1)c1ccc(F)cc1Cl [Example 32, N^4-{4-[(2-chloro-4-fluorobenzoyl)amino]phenyl}-N^5-[2-(piperidin-1-yl)ethyl]-1H-imidazole-4,5-dicarboxamide]	0.008 µM
